Measured values published in patent publication US20170304388A1, “NEW INDICATION OF CARDIOVASCULAR DRUGS FOR PREPARATION OF CANCER INHIBITION PHARMACEUTICAL COMPOSITION” (LAUNX BIOMEDICAL CO., LTD., priority 2014, published 2017).
Where a name gives a salt, the structure may show the parent alone. Read-outs that look alike come from different tables or passages of the source.

Key:
Type in all cases: cell-based
[1] = system: HCT116 (Colorectal Carcinoma); assay: Cell viability analysis (WST-1), HCT116; settings: WST-1, OD450 nm; for viability at 10 µM: Homo sapiens, read-out: survival rate (viability) of cancer cells, HCT116 (WT)
cancer cell lines = assay: Growth inhibitory effects on the panel of cancer cell lines; settings: drug 10 μM, 72 hours; for Numbers of inhibitory effect on cancer cell line: count of cancer cell lines inhibited; for inhibition effect on different cancer cell lines (in words): WST-1
[2] = system: A549 (Lung Adenocarcinoma); assay: Cell viability analysis (WST-1), A549; settings: WST-1, OD450 nm; for viability at 10 µM: Homo sapiens, read-out: survival rate (viability) of cancer cells, A549
[3] = system: A375 (Amelanotic Melanoma); assay: Cell viability analysis (WST-1), A375; settings: WST-1, OD450 nm, lower viability = better inhibition; for viability at 10 µM: Homo sapiens, read-out: survival rate (viability) of cancer cells, A375
[4] = system: MCF7 (Mammary Gland, Adenocarcinoma); assay: Cell viability analysis (WST-1), MCF7; settings: WST-1, OD450 nm; for viability at 10 µM: Homo sapiens, read-out: survival rate (viability) of cancer cells, MCF7
[5] = system: MKN-45 (Gastric Adenocarcinoma); assay: Cell viability analysis (WST-1), MKN-45; settings: WST-1, OD450 nm; for viability at 10 µM: Homo sapiens, read-out: survival rate (viability) of cancer cells, MKN-45
[6] = system: PC3 (Prostate Adenocarcinoma); assay: Cell viability analysis (WST-1), PC3; settings: WST-1, OD450 nm; for viability at 10 µM: read-out: survival rate (viability) of cancer cells, PC3
[7] = system: H1650 (Lung Adenocarcinoma); assay: Cell viability analysis (WST-1), H1650; settings: WST-1, OD450 nm; for viability at 10 µM: Homo sapiens, read-out: survival rate (viability) of cancer cells, H1650
[8] = system: TSGH-8301 (Urinary Bladder Carcinoma); assay: Cell viability analysis (WST-1), TSGH-8301; settings: WST-1, OD450 nm; for viability at 10 µM: read-out: survival rate (viability) of cancer cells, TSGH
[9] = system: HeLa (Cervix Adenocarcinoma); assay: Cell viability analysis (WST-1), HeLa; settings: WST-1, OD450 nm; for viability at 10 µM: Homo sapiens, HeLa, read-out: survival rate (viability) of cancer cells, HeLa
[10] = system: AGS (Gastric Adenocarcinoma); assay: Cell viability analysis (WST-1), AGS; settings: WST-1, OD450 nm; for viability at 10 µM: read-out: survival rate (viability) of cancer cells, AGS
[11] = system: HepG2 (Hepatocellular Carcinoma); assay: Cell viability analysis (WST-1), HepG2; settings: WST-1, OD450 nm; for viability at 10 µM: Homo sapiens, read-out: survival rate (viability) of cancer cells, HepG2
[12] = system: HL-60 (Acute Promyelocytic Leukemia); assay: Cell viability analysis (WST-1), HL-60; settings: Table 3, drug 10 μM, 72 hours, WST-1, OD450 nm; for viability at 10 µM: Homo sapiens, HL-60, read-out: survival rate (viability) of cancer cells, HL-60
[13] = system: LoVo (Colorectal Adenocarcinoma); assay: Cell viability analysis (WST-1), LoVo; settings: WST-1, OD450 nm; for viability at 10 µM: Homo sapiens, LoVo, read-out: survival rate (viability) of cancer cells, LoVo
[14] = HCT-116, 72 h, Table 3, drug 10 μM
[15] = A549, 72 h, Table 3, drug 10 μM
[16] = A-375, 72 h, Table 3, drug 10 μM
[17] = MCF7, 72 h, Table 3, drug 10 μM
[18] = MKN-45, 72 h, Table 3, drug 10 μM
[19] = NCI-H1650, 72 h, Table 3, drug 10 μM
[20] = HepG2, 72 h, Table 3, drug 10 μM

Row | SMILES | Numbers of inhibitory effect on cancer cell line (cancer cell lines) | inhibition effect on different cancer cell lines (in words) (cancer cell lines) | viability at 10 µM [12] [%] | viability at 10 µM [1, 14] [%] | viability at 10 µM [2, 15] [%] | viability at 10 µM [3, 16] [%] | viability at 10 µM [4, 17] [%] | viability at 10 µM [5, 18] [%] | viability at 10 µM ([6]; 72 h, Table 3, drug 10 μM) [%] | viability at 10 µM [7, 19] [%] | viability at 10 µM ([8]; 72 h, Table 3, drug 10 μM) [%] | viability at 10 µM ([9]; 72 h, Table 3, drug 10 μM) [%] | viability at 10 µM ([10]; 72 h, Table 3, drug 10 μM) [%] | viability at 10 µM [11, 20] [%] | viability at 10 µM ([13]; 72 h, Table 3, drug 10 μM) [%] | also measured
1 | CCN(C)C(=O)Oc1cccc([C@H](C)N(C)C)c1 [Rivastigmine tartrate (Exelon), Rivastigmine tartrate] | 0 | significant inhibition effect | 103 |  |  |  |  |  |  |  |  |  |  |  |  | viability at 10 µM ([1]; HCT-116, Table 3, drug 10 μM, 72 hours): 118%; viability at 10 µM ([2]; A549, Table 3, drug 10 μM, 72 hours): 65.9%; viability at 10 µM ([3]; A-375, Table 3, drug 10 μM, 72 hours): 76.1%; viability at 10 µM ([4]; MCF7, Table 3, drug 10 μM, 72 hours): 67.5%; viability at 10 µM ([5]; MKN-45, Table 3, drug 10 μM, 72 hours): 93.8%; viability at 10 µM ([6]; Table 3, drug 10 μM, 72 hours): 85.4%; viability at 10 µM ([7]; NCI-H1650, Table 3, drug 10 μM, 72 hours): 83.6%; viability at 10 µM ([8]; Table 3, drug 10 μM, 72 hours): 83.9%; viability at 10 µM ([9]; Table 3, drug 10 μM, 72 hours): 90.1%; viability at 10 µM ([10]; Table 3, drug 10 μM, 72 hours): 63.6%; viability at 10 µM ([11]; HepG2, Table 3, drug 10 μM, 72 hours): 93.7%; viability at 10 µM ([13]; Table 3, drug 10 μM, 72 hours): 85.4%
2 | CC(C)NC[C@H](O)COc1ccc(CCOCC2CC2)cc1 [Levobetaxolol HCl] | 0 | significant inhibition effect | 107 | 70.3 | 75.9 | 76.9 | 85 | 119 | 77.3 | 69.9 | 98.2 | 88.7 | 62.5 | 99.2 | 80 | 
3 | NS(=O)(=O)c1cc2c(cc1Cl)NC(C(Cl)Cl)NS2(=O)=O (centres unmarked) [Trichlormethiazide (Achletin), Trichlormethiazide] | 0 | significant inhibition effect | 102 | 112 | 106 | 128 | 64.2 | 71 | 122 | 76.7 | 95.6 | 85.7 | 79.3 | 95.1 | 107 | 
4 | CCCNCC(O)COc1ccccc1C(=O)CCc1ccccc1 (centres unmarked) [Propafenone (Rytmonorm), Propafenone] | 0 |  | 113 | 109 | 94.1 | 95.8 | 120 | 84.7 | 104 | 92.5 | 61.1 | 109 | 79.8 | 86 | 105 | 
5 | CNC[C@@H](O)c1ccc(O)c(O)c1 [L-Adrenaline (Epinephrine), L-Adrenaline] | 0 | significant inhibition effect |  |  |  |  |  |  |  |  |  |  |  |  |  | survival rate (viability) of cancer cells, HCT116 (WT) ([1]; Table 3, drug 10 μM, 72 hours): 85.0; survival rate (viability) of cancer cells, A549 ([2]; Table 3, drug 10 μM, 72 hours): 90.8; survival rate (viability) of cancer cells, A375 ([3]; Table 3, drug 10 μM, 72 hours): 101.9; survival rate (viability) of cancer cells, MCF7 ([4]; Table 3, drug 10 μM, 72 hours): 123.0; survival rate (viability) of cancer cells, MKN-45 ([5]; Table 3, drug 10 μM, 72 hours): 69.4; survival rate (viability) of cancer cells, PC3 ([6]; Table 3, drug 10 μM, 72 hours): 106.0; survival rate (viability) of cancer cells, H1650 ([7]; Table 3, drug 10 μM, 72 hours): 76.6; survival rate (viability) of cancer cells, TSGH ([8]; Table 3, drug 10 μM, 72 hours): 64.7; survival rate (viability) of cancer cells, HeLa ([9]; Table 3, drug 10 μM, 72 hours): 88.7; survival rate (viability) of cancer cells, AGS ([10]; Table 3, drug 10 μM, 72 hours): 61.1; survival rate (viability) of cancer cells, HepG2 ([11]; Table 3, drug 10 μM, 72 hours): 81.6; survival rate (viability) of cancer cells, HL-60 [12]: 101.8; survival rate (viability) of cancer cells, LoVo ([13]; Table 3, drug 10 μM, 72 hours): 93.6
6 | O=C(O)c1cc(=O)c2ccccc2o1 [Chromocarb] | 0 | significant inhibition effect | 110 | 72.8 | 61.1 | 63.4 | 100 | 100 | 88.3 | 78.8 | 97.2 | 67.6 | 81.8 | 95.6 | 72.5 | 
7 | Clc1ccccc1CN1CCc2sccc2C1 [Ticlopidine HCl] | 0 | significant inhibition effect | 102 | 71.9 | 84.9 | 86.5 | 96.8 | 72.7 | 69.9 | 61.6 | 112 | 81.9 | 77.2 | 97.4 | 90.5 | 
8 | CCN(CC)CCOC(=O)C(c1ccccc1)c1ccccc1 [Adiphenine HCl] | 0 | significant inhibition effect | 105 | 134 | 86.8 | 87.6 | 103 | 95.7 | 102 | 119 | 82 | 96.4 | 109 | 95.5 | 95.7 | 
9 | O=C(O)c1nn(Cc2ccc(Cl)cc2Cl)c2ccccc12 [Lonidamine] | 0 | significant inhibition effect | 115 | 81.2 | 109 | 65.8 | 86.9 | 93.3 | 102 | 65.9 | 86.4 | 61.6 | 69.9 | 114 | 96.1 | 
10 | CO[C@@H]1[C@@H](OC(N)=O)[C@@H](O)[C@H](Oc2ccc3c(O)c(NC(=O)c4ccc(O)c(CC=C(C)C)c4)c(=O)oc3c2C)OC1(C)C [Novobiocin sodium (Albamycin), Novobiocin sodium] | 0 | significant inhibition effect | 123 | 116 | 95.2 | 93.4 | 109 | 84.4 | 89 | 93.5 | 85.3 | 96.1 | 128 | 92 | 87.1 | 
